Measurements from patent US20080064727A1, “Crystalline forms of tiagabine hydrochloride” (Cephalon, Inc., priority 2006, published 2008).
Entries after “also recorded” stand apart in the source; their conditions may differ.

Experiments:
Type in all cases: physicochemical
[1] = Solid-form stability on drying under vacuum, resulting form by XRPD analysis
Protocol: (§1) X-ray powder diffraction (XRPD) analyses were performed using the following instruments & methods:
(§2) A. Shimadzu XRD-6000 X-ray powder diffractometer using Cu Kα radiation. The instrument was equipped with a long fine focus X-ray tube. The tube voltage and amperage were set to 40 kV and 40 mA, respectively. The divergence and scattering slits were set at 1° and the receiving slit was set at 0.15 mm. Diffracted radiation was detected by a NaI scintillation detector. A θ-2θ continuous scan at 3°/min (0.4 sec/0.02° step) from 2.5 to 40° 2θ was used. A silicon standard was analyzed to check the instrument alignment. Data were collected and analyzed using XRD-6000 v. 4.1. Samples were prepared for analysis by placing them in a sample holder.
(§3) B. Inel XRG-3000 diffractometer, equipped with a CPS (Curved Position Sensitive) detector with a 2 Orange of 120°. Real time data were collected using Cu—Kα radiation starting at approximately 4° 2θ at a resolution of 0.03° 2θ. The tube voltage and amperage were set to 40 kV and 30 mA, respectively. The monochromator slit was set at 5 mm by 80 μm or 160 μm. […] Samples were prepared for analysis by packing them into thin-walled glass capillaries. Each capillary was mounted onto a goniometer head that is motorized to permit spinning of the capillary during data acquisition. The acquisition time was between 5 to 10 min. Instrument calibration was performed using a silicon reference standard.
(§4) D. Bruker D-8 Discover diffractometer and Bruker's General Area Diffraction Detection System (GADDS, v. 4.1.20). An incident beam of Cu—Kα radiation was produced using a fine-focus tube (40 kV, 40 mA), a Gobel mirror, and a 0.5 mm double-pinhole collimator. The samples were positioned for analysis by securing the well plate to a translation stage and moving each sample to intersect the incident beam. Alternatively, the sample was packed between 3-micron thick films to form a portable disc-shaped specimen, and the specimen was loaded in a holder secured to a translation stage. The samples were analyzed using a transmission geometry. The incident beam was scanned and rastered over the sample during the analysis to optimize orientation statistics. A beam-stop was used to minimize air scatter from the incident beam at low angles. Diffraction patterns were collected using a Hi-Star area detector located 15 cm from the sample and processed using GADDS. The intensity in the GADDS image of the diffraction pattern was integrated using a step size of 0.04° 2θ. The integrated patterns display diffraction intensity as a function of 2θ. Prior to the analysis a silicon standard was analyzed to verify the Si 111 peak position.
(§5) E. Peak Picking Methods. Any XRPD files generated from Inel or Bruker XRPD instruments were converted to Shimadzu .raw file using File Monkey version 3.0.4. The Shimadzu .raw file was processed by the Shimadzu XRD-6000 version 4.1 software to automatically find peak positions. The “peak position” means the maximum intensity of a peaked intensity profile. The following processes were used with the Shimadzu XRD-6000 “Basic Process” version 2.6 algorithm: • Smoothing was done on all patterns. • The background was subtracted to find the net, relative intensity of the peaks. • A peak from Cu K alpha2 (1.5444 Å) wavelength was subtracted from the peak generated by Cu K alpha1 (1.5406 Å) peak at 50% intensity for all patterns. Differential Scanning Calorimetry

[2] = Solid-form stability on storage, resulting form by XRPD analysis; conditions: for Form indicated by XRPD analysis after storage / Form converted to during storage: hydrochloride; for Form converted to during storage: during storage (summary statement, conditions not given)
Protocol: as §1, §2, §3, §4, §5

[3] = Solid-form stability on heating, resulting form by XRPD analysis
Protocol: as §1, §2, §3
C. Shimadzu XRD-6000 X-ray powder diffractometer equipped with an Anton Paar HTK 1200 high temperature stage (Variable-temperature XRPD (VT-XRPD)). The sample was packed in a ceramic holder and analyzed form 2.5 to 40° 2θ at 3°/min (0.4 sec/0.02° step). The heating rate was 10° C./min. A silicon standard was analyzed to check the instrument alignment. Temperature calibration was performed using vanillin and sulfapyridine USP melting point standards. Data were collected and analyzed using XPD-6000 v.4.1. The system was kept under a purge of nitrogen during the analysis.
as §4
E. Peak Picking Methods. Any XRPD files generated from Inel or Bruker XRPD instruments were converted to Shimadzu .raw file using File Monkey version 3.0.4. The Shimadzu .raw file was processed by the Shimadzu XRD-6000 version 4.1 software to automatically find peak positions. The “peak position” means the maximum intensity of a peaked intensity profile. The following processes were used with the Shimadzu XRD-6000 “Basic Process” version 2.6 algorithm: • Smoothing was done on all patterns. • The background was subtracted to find the net, relative intensity of the peaks. • A peak from Cu K alpha2 (1.5444 Å) wavelength was subtracted from the peak generated by Cu K alpha1 (1.5406 Å) peak at 50% intensity for all patterns. […]

[4] = dried under vacuum at room temperature for less than one day, hydrochloride
[5] = stored two months, ambient temperature and humidity
[6] = stored five (5) days, about 40° C., about 89% relative humidity
[7] = stored five (5) days, about 60° C., about 75% relative humidity
[8] = stored five (5) days, 2-8° C., about 96% relative humidity
[9] = under vacuum at room temperature for about four (4) days, hydrochloride
[10] = dried about 14 hours under vacuum at about 65° C., hydrochloride

## Cc1ccsc1C(=CCCN1CCC[C@@H](C(=O)O)C1)c1sccc1C.Cl [Form AA, tiagabine hydrochloride]
[1]; [4]
  Form indicated by XRPD analysis after drying: Form AA

## Cc1ccsc1C(=CCCN1CCC[C@@H](C(=O)O)C1)c1sccc1C.Cl [Form C, tiagabine hydrochloride]
[2]; ambient temperature and humidity
  Time stable when stored: 2 months
[2]; [5]
  Form indicated by XRPD analysis after storage: tiagabine HCl Form C

## Cc1ccsc1C(=CCCN1CCC[C@@H](C(=O)O)C1)c1sccc1C.Cl [Form D containing a minor amount of Form B] [tiagabine hydrochloride]
[2]; [6]
  Form indicated by XRPD analysis after storage: a mixture of tiagabine HCl Form B and a trace of Q
[2]; [7]
  Form indicated by XRPD analysis after storage: tiagabine HCl Form B and a trace of Q

## Cc1ccsc1C(=CCCN1CCC[C@@H](C(=O)O)C1)c1sccc1C.Cl [Form D, tiagabine hydrochloride]
[1]; [4]
  Form indicated by XRPD analysis after drying: a mixture of Form D containing a minor amount of Form A
[2]
  Form converted to during storage: tiagabine hydrochloride Form B, sometimes mixed with tiagabine hydrochloride Form Q
[2]; [8]
  Form indicated by XRPD analysis after storage: a mixture of tiagabine HCl Forms B and Q
[2]; [5]
  Form indicated by XRPD analysis after storage: a mixture of tiagabine HCl Forms Q and B

## Cc1ccsc1C(=CCCN1CCC[C@@H](C(=O)O)C1)c1sccc1C.Cl [Form H, tiagabine hydrochloride]
[1]; [9]
  Form indicated by XRPD analysis after drying: Form Q
[3]; heated at 90-95° C. for about 10 minutes, hydrochloride
  Form indicated by XRPD analysis after heating: Form Q containing a minor amount of Form B

## Cc1ccsc1C(=CCCN1CCC[C@@H](C(=O)O)C1)c1sccc1C.Cl [Form I, tiagabine hydrochloride]
[2]
  Form converted to during storage: a mixture of tiagabine hydrochloride Forms S and B
[2]; [5]
  Form indicated by XRPD analysis after storage: a mixture of tiagabine HCl Forms S and B; also recorded: a mixture of Form S+Form B

## Cc1ccsc1C(=CCCN1CCC[C@@H](C(=O)O)C1)c1sccc1C.Cl [Form J, tiagabine hydrochloride]
[2]
  Form converted to during storage: a mixture of tiagabine hydrochloride Forms Q and B
[2]; [5]
  Form indicated by XRPD analysis after storage: a mixture of tiagabine HCl Forms Q and B

## Cc1ccsc1C(=CCCN1CCC[C@@H](C(=O)O)C1)c1sccc1C.Cl [Form M, tiagabine hydrochloride]
[2]
  Form converted to during storage: a mixture of tiagabine hydrochloride Forms B and Q
[2]; [5]
  Form indicated by XRPD analysis after storage: a mixture of tiagabine HCl Forms B and Q

## Cc1ccsc1C(=CCCN1CCC[C@@H](C(=O)O)C1)c1sccc1C.Cl [Form P containing Form B, tiagabine hydrochloride]
[1]; [10]
  Form indicated by XRPD analysis after drying: a mixture of tiagabine Form P and B
[2]; [8]
  Form indicated by XRPD analysis after storage: a mixture of tiagabine HCl Forms P and B

## Cc1ccsc1C(=CCCN1CCC[C@@H](C(=O)O)C1)c1sccc1C.Cl [Form P containing a minor amount of Form B] [tiagabine hydrochloride]
[1]; dried about 15 hours under vacuum at 40-95° C.
  Form indicated by XRPD analysis after drying: a mixture of tiagabine HCl Forms P and B
[1]; [9]
  Form indicated by XRPD analysis after drying: a mixture of tiagabine HCl Forms P and B

## Cc1ccsc1C(=CCCN1CCC[C@@H](C(=O)O)C1)c1sccc1C.Cl [Form P, tiagabine hydrochloride]
[2]
  Form converted to during storage: Form B
[2]; [6]
  Form indicated by XRPD analysis after storage: tiagabine HCl Form B
[2]; [7]
  Form indicated by XRPD analysis after storage: tiagabine HCl Form B

## Cc1ccsc1C(=CCCN1CCC[C@@H](C(=O)O)C1)c1sccc1C.Cl [Form S mixed with Form B, tiagabine hydrochloride]
[1]; [10]
  Form indicated by XRPD analysis after drying: a mixture of tiagabine HCl Forms S and B

## Cc1ccsc1C(=CCCN1CCC[C@@H](C(=O)O)C1)c1sccc1C.Cl [Form T, tiagabine hydrochloride]
[1]; [9]
  Form indicated by XRPD analysis after drying: tiagabine HCl Form C
[3]; heated to about 115-120° C. for approximately 10 minutes
  Form indicated by XRPD analysis after heating: tiagabine HCl Form B

## Cc1ccsc1C(=CCCN1CCC[C@@H](C(=O)O)C1)c1sccc1C.Cl [Form Y, tiagabine hydrochloride]
[1]; [4]
  Form indicated by XRPD analysis after drying: Form Y
[3]; heated at 100-110° C. for about 10 minutes
  Form indicated by XRPD analysis after heating: Form B containing a minor amount of Form Q

## Cc1ccsc1C(=CCCN1CCC[C@@H](C(=O)O)C1)c1sccc1C.Cl [Form Z, tiagabine hydrochloride]
[3]; heated at 90-95° C. for about 10 minutes, listed as From Z, hydrochloride
  Form indicated by XRPD analysis after heating: a mixture of Forms B and Q
